Molecular target: hDGAT2 (Homo sapiens (Human), UniProt Q96PD7)
Experiment: DGAT2 Enzymatic Activity Assay
Assay type: biochemical
Details: hDGAT2 Sf-9 membrane prep; 25 μM diolein, 10 μM oleoyl-CoA; triolein product by LC/MS/MS; read-out: IC50 values for inhibition of DGAT2
Procedure: Sf-9 insect cells were maintained in Grace's insect cell culture medium with 10% heated-inactivated fetal bovine serum, 1% Pluronic F-68 and 0.14 μg/ml Kanamycine sulfate in Erlenmeyer flasks at 28° C. in a shaker incubator. After infection with untagged hDGAT2 baculovirus at multiplicity of infection (MOI) 0.1 for 48 hours, cells were harvested. Cell pellets were suspended in buffer containing 10 mM Tris-HCl (pH 7.5), 1 mM EDTA (pH 8.0), 250 mM sucrose and Complete Protease Inhibitor Cocktail (Roche Diagnostics Corp., Indianapolis, Ill.), and sonicated on ice. Membrane fractions were isolated by ultracentrifugation (100,000×g pellet), resuspended in the same buffer, and frozen (−80° C.) for later use. The protein concentration was determined with the BCA Protein Assay kit (Pierce Biotechnology Inc., Rockford, Ill.). Expression of protein levels was analyzed by immunoblotting with goat polyclonal DGAT2 antibody C-15 and donkey anti-goat IgG HRP (Santa Cruz Biotechnology, Inc., Santa Cruz, Calif.) followed by detection with ECL reagent (GE Healthcare, Piscataway, N.J.).
LC/MS/MS analyses were performed using Thermal Fisher's LX4-TSQ Vantage system. This system consists of an Agilent binary high-performance liquid chromatography (HPLC) pumps and a TSQ Vantage triple quadrupole MS/MS instrument. For each sample, 2 μL, samples from the top organic layer of in-plate liquid-liquid extraction were injected onto a Thermo Betabasic C4 column (2.1 mm×20 mm, 5 μm particle size). The samples were then eluted using the following conditions; mobile phase: methanol/water with 0.1% ammonium format=92/8 (v/v), flow rate: 1 mL/min, temperature: 25 C. Data was acquired in positive mode using a heated electrospray ionization (HESI) interface. The operational parameters for the TSQ Vantage MS/MS instrument were a spray voltage of 3000 V, capillary temperature of 280° C., vaporizer temperature 400° C., shealth gas 60 arbitrary unit, Aux gas 40 arbitrary units, S-lens 113 and collision gas 0.16 Pascals. […] (SRM) chromatograms of triolein (Q1: 902.9>Q3: 602.3) and internal standard (Q1: 902.9>Q3: 602.3) were collected for 40 sec. The peak area was integrated by Xcalibur Quan software. The ratio between the triolein generated in the reaction and spiked in internal standard were used to generate percentage inhibition and IC50 values. Compound percentage inhibition was calculated by the following formula: Inhibition %=1-[(compound response low control)/(high control low control)]×100%. Potent compounds were titrated and IC50 were calculated by 4 parameter sigmoidal curve fitting formula.
DGAT2 activity was determined by measuring the amount of enzymatic product triolein (1,2,3-Tri(cis-9-octadecenoyl)glycerol) using the membrane prep mentioned above. The assay was carried out in deep well 384 plates in a final volume of 40 μL at room temperature. The assay mixture contained the following: assay buffer (100 mM Tris.Cl, pH 7.0, 20 mM MgCl2, 5% ethanol), 25 μM of diolein, 10 μM of oleoyl-CoA and 10 ng/μL of DGAT2 membrane.

Sequence of hDGAT2 (Q96PD7 whole entry): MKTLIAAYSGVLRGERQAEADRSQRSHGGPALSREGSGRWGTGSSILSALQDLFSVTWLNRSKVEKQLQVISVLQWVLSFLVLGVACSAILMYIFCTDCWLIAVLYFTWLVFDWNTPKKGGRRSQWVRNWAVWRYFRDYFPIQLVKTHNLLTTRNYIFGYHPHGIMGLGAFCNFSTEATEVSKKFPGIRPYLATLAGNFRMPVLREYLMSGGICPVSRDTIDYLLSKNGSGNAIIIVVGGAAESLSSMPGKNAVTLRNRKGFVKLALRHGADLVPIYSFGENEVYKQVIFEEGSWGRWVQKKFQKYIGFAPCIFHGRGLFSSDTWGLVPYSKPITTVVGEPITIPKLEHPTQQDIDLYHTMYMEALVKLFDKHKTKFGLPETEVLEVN

SMILES	IC50 [nM]
Cc1noc(C2CC2C(=O)NCc2ccc(-c3cccc(OC(F)(F)F)c3)c3c2CN(C(=O)NC2(C)CCS(=O)(=O)C2)CC3)n1 (centres unmarked) [Example 58, N-(3-methyl-1,1-dioxidotetrahydrothiophen-3-yl)-8-((2-(3-methyl-1,2,4-oxadiazol-5-yl)cyclopropanecarboxamido)methyl)-5-(3-(trifluoromethoxy)phenyl)-3,4-dihydroisoquinoline-2(1H)-carboxamide]	24
CC(C)(C)NC(=O)N1CCc2c(-c3cccc(C(N)=O)c3)ccc(CNC(=O)[C@@H]3C[C@H]3c3ccccc3)c2C1 (relative stereo) [Example 42, N-(tert-butyl)-5-(3-carbamoylphenyl)-8-(((trans)-2-phenylcyclopropanecarboxamido)methyl)-3,4-dihydroisoquinoline-2(1H)-carboxamide]	155
Cc1noc(C2CC2C(=O)NCc2ccc(-c3cccc(OC(F)(F)F)c3)c3c2CN(C(=O)NC(C)(C)C)CC3)n1 (stereo not drawn) [Example 1, N-(tert-butyl)-8-(((trans)-2-(3-methyl-1,2,4-oxadiazol-5-yl)cyclopropanecarboxamide)methyl)-5-(3-(trifluoromethoxy)phenyl)-3,4-dihydroisoquinoline-2(1H)-carboxamide]	3.6
CC(C)(C)NC(=O)N1CCc2c(-c3cccc(NS(C)(=O)=O)c3)ccc(CNC(=O)[C@@H]3C[C@H]3c3ccccc3)c2C1 (relative stereo) [Example 39, N-(tert-butyl)-5-(3-(methylsulfonamido)phenyl)-8-(((trans)-2-phenylcyclopropanecarboxamido)methyl)-3,4-dihydroisoquinoline-2(1H)-carboxamide]	832
COC(=O)c1cccc(-c2ccc(CNC(=O)[C@@H]3C[C@H]3c3ccccc3)c3c2CCN(C(=O)NC2(C)CCCC2)C3)c1 (relative stereo) [Example 55, methyl 3-(2-((1-methylcyclopentyl)carbamoyl)-8-(((trans)-2 phenylcyclopropanecarboxamido)methyl)-1,2,3,4-tetrahydroisoquinolin-5-yl) benzoate]	10
COC(=O)c1cccc(-c2ccc(CNC(=O)C3CC3c3nc(C)no3)c3c2CCN(C(=O)NC(C)(C)C)C3)c1 (centres unmarked) [Example 21, methyl 3-(2-(tert-butylcarbamoyl)-8-((2-(3-methyl-1,2,4-oxadiazol-5-yl)cyclopropanecarboxamido)methyl)-1,2,3,4-tetrahydroisoquinolin-5-yl)benzoate]	15.5
COc1cccc(-c2ccc(CNC(=O)C3CC3c3ccccc3)c3c2CCN(C(=O)NC2CC(F)(F)C2)C3)c1 (centres unmarked) [Example 57, N-(3,3-difluorocyclobutyl)-5-(3-methoxyphenyl)-8-((2-phenylcyclopropanecarboxamido)methyl)-3,4-dihydroisoquinoline-2(1H)-carboxamide]	87
Cn1nnc2ccc(-c3ccc(CNC(=O)[C@@H]4C[C@H]4c4ccccc4)c4c3CCN(C(=O)NC(C)(C)C)C4)cc21 (relative stereo) [Example 33, N-(tert-butyl)-5-(1-methyl-1H-benzo[d][1,2,3]triazol-6-yl)-8-(((trans)-2-phenylcyclopropanecarboxamido)methyl)-3,4-dihydroisoquinoline-2(1H)-carboxamide]	2860
CCOC(=O)c1cncc(-c2ccc(CNC(=O)[C@@H]3C[C@H]3c3ccccc3)c3c2CCN(C(=O)NC(C)(C)C)C3)c1 (relative stereo) [Example 46, ethyl 5-(2-(tert-butylcarbamoyl)-8-(((trans)-2-phenylcyclopropanecarboxamido)methyl)-1,2,3,4-tetrahydroisoquinolin-5-yl)nicotinate]	0.66

The next lines start with the values.

IC50 [nM]	SMILES
971	COc1cccc(-c2ccc(CNC(=O)[C@@H]3C[C@H]3c3ccccc3)c3c2CCN(C(=O)c2cc(F)cc(F)c2)C3)c1 (relative stereo) [Example 111, (trans)-N-((2-(3,5-difluorobenzoyl)-5-(3-methoxyphenyl)-1,2,3,4-tetrahydroisoquinolin-8-yl)methyl)-2-phenylcyclopropanecarboxamide]
1580	Cc1noc([C@@H]2C[C@H]2C(=O)NCc2ccc(-c3cccc(C(F)(F)F)c3)c3c2CN(C(=O)C(C)(C)O)CC3)n1 (stereo in doubt) [Example 120, (trans)-N-((2-(2-hydroxy-2-methylpropanoyl)-5-(3-(trifluoromethyl)phenyl)-1,2,3,4-tetrahydroisoquinolin-8-yl)methyl)-2-(3-methyl-1,2,4-oxadiazol-5-yl)cyclopropanecarboxamide]
1770	COCCC(=O)N1CCc2c(-c3cccc(C(=O)OC)c3)ccc(CNC(=O)C3CC3c3ccccc3)c2C1 (centres unmarked) [Example 126, methyl 3-(2-(3-methoxypropanoyl)-8-((2-phenylcyclopropanecarboxamido)methyl)-1,2,3,4-tetrahydroisoquinolin-5-yl)benzoate]
522	COC(=O)c1cccc(-c2ccc(CNC(=O)C3CC3c3ccccc3)c3c2CCN(C(=O)C2(C)CC2)C3)c1 (centres unmarked) [Example 132, methyl 3-(2-(1-methylcyclopropanecarbonyl)-8-((2-phenylcyclopropanecarboxamido)methyl)-1,2,3,4-tetrahydroisoquinolin-5-yl)benzoate]
1840	Cc1noc([C@@H]2C[C@H]2C(=O)NCc2ccc(-c3cccc(OC(F)(F)F)c3)c3c2CN(Cc2scnc2C)CC3)n1 (relative stereo) [Example 106, (trans)-2-(3-methyl-1,2,4-oxadiazol-5-yl)-N-((2-((4-methylthiazol-5-yl)methyl)-5-(3-(trifluoromethoxy)phenyl)-1,2,3,4-tetrahydroisoquinolin-8-yl)methyl)cyclopropanecarboxamide]
3900	COC(=O)c1cccc(-c2ccc(CNC(=O)C3CC3c3ccccc3)c3c2CCN(Cc2cccnc2)C3)c1 (centres unmarked) [Example 99, methyl 3-(8-((2-phenylcyclopropanecarboxamido)methyl)-2-(pyridin-3-ylmethyl)-1,2,3,4-tetrahydroisoquinolin-5-yl)benzoate]
5090	Cc1noc([C@@H]2C[C@H]2C(=O)NCc2ccc(-c3cccc(OC(F)(F)F)c3)c3c2CN(Cc2noc(C(C)C)n2)CC3)n1 (relative stereo) [Example 104, (trans)-N-((2-((5-isopropyl-1,2,4-oxadiazol-3-yl)methyl)-5-(3-(trifluoromethoxy)phenyl)-1,2,3,4-tetrahydroisoquinolin-8-yl)methyl)-2-(3-methyl-1,2,4-oxadiazol-5-yl)cyclopropanecarboxamide]
1340	COc1cccc(-c2ccc(CNC(=O)[C@H]3C[C@@H]3C(=O)O)c3c2CCN(C(=O)NC(C)(C)C)C3)c1 (relative stereo) [Example 84, (trans)-2-(((2-(tert-butylcarbamoyl)-5-(3-methoxyphenyl)-1,2,3,4-tetrahydroisoquinolin-8-yl)methyl)carbamoyl)cyclopropanecarboxylic acid]
11.5	CCCNC(=O)N1CCc2c(-c3cccc(C(F)(F)F)c3)ccc(CNC(=O)[C@@H]3C[C@H]3c3nc(C)no3)c2C1 (relative stereo) [Example 66, 8-(((trans)-2-(3-methyl-1,2,4-oxadiazol-5-yl)cyclopropanecarboxamido)methyl)-N-propyl-5-(3-(trifluoromethyl)phenyl)-3,4-dihydroisoquinoline-2(1H)-carboxamide]
4850	COc1cccc(-c2ccc(CNC(=O)C3CC3c3ccccc3)c3c2CCN(Cc2ccccc2)C3)c1 (centres unmarked) [Example 90, N-((2-benzyl-5-(3-methoxyphenyl)-1,2,3,4-tetrahydroisoquinolin-8-yl)methyl)-2-phenylcyclopropanecarboxamide]
3340	COC(=O)c1cccc(-c2ccc(CNC(=O)C3CC3c3ccccc3)c3c2CCN(C(=O)C2CCC(C)CC2)C3)c1 (centres unmarked) [Example 137, methyl 3-(2-(4-methylcyclohexanecarbonyl)-8-((2-phenylcyclopropanecarboxamido)methyl)-1,2,3,4-tetrahydroisoquinolin-5-yl)benzoate]
